According to US10647713B2 (Nimbus Lakshmi, Inc., priority 2016, dated 2020):

The compounds below were run against human TYK2 (JH2domain-pseudokinase) (Homo sapiens (Human), UniProt P29597) (assay: TYK2 JH2 Domain Binding Assay (KINOMEscan, DiscoveRx)). Conditions: 11-point dilution, duplicate.
human TYK2 (JH2domain-pseudokinase), sequence (P29597 556-888): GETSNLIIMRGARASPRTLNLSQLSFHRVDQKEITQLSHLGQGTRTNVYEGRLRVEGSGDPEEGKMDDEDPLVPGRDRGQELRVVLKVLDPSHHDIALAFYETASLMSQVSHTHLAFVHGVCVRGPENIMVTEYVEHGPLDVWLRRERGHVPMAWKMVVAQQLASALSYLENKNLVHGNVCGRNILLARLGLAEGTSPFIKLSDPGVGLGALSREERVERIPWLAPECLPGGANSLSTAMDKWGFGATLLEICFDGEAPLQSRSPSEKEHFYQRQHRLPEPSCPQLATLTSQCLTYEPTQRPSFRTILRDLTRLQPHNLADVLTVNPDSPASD
Summary of the method: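 Kd from duplicate 11-point 3-fold dilutions starting at 30,000 nM, fitted by Hill equation with slope fixed at −1. Compounds (final 0.9% DMSO) displace DNA-tagged HEK293-expressed TYK2 JH2 fusion (<0.1 nM) from ligand-coated beads over 1 h at room temperature; eluted kinase read by qPCR.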
In the case of `[2H]C([2H])([2H])N(c1ccccc1Nc1cc(Nc2cc(C)nc(C)n2)nc2[nH]c(C)nc12)S(=O)(=O)C([2H])([2H])[2H]` [I-458, N-(2-((5-((2,6-dimethylpyrimidin-4-yl)amino)-2-methyl-3H-imidazo[4,5-b]pyridin-7-yl)amino)phenyl)-N-(methyl-d3)methanesulfonamide-d3], the Kd is reported as 0.1 to 0.5 nM. In the case of `Cc1cn(C)nc1-c1ccc(Nc2cc(NC(=O)[C@@H]3CC3(C)C)nc3[nH]c(C(F)F)nc23)c(S(C)(=O)=O)c1` [I-459, (R)—N-(2-(difluoromethyl)-7-((4-(1,4-dimethyl-1H-pyrazol-3-yl)-2-(methylsulfonyl)phenyl)amino)-3H-imidazo[4,5-b]pyridin-5-yl)-2,2-dimethylcyclopropane-1-carboxamide], the Kd is reported as 1 to 10 nM. For `Cc1cn(C)nc1-c1ccc(Nc2cc(NC(=O)[C@H]3CC3(C)C)nc3[nH]c(C(F)F)nc23)c(S(C)(=O)=O)c1` [I-460, (S)—N-(2-(difluoromethyl)-7-((4-(1,4-dimethyl-1H-pyrazol-3-yl)-2-(methylsulfonyl)phenyl)amino)-3H-imidazo[4,5-b]pyridin-5-yl)-2,2-dimethylcyclopropane-1-carboxamide], the Kd was 1 to 10 nM. Work on `Cc1cn(C)c(-c2ccc(Nc3cc(NC(=O)C4CC4)nc4[nH]c(C)nc34)c(S(C)(=O)=O)c2)n1` [I-461, N-(7-((4-(1,4-dimethyl-1H-imidazol-2-yl)-2-(methylsulfonyl)phenyl)amino)-2-methyl-3H-imidazo[4,5-b]pyridin-5-yl)cyclopropanecarboxamide] yielded a Kd of 0.1 to 0.5 nM. `Cc1nc2c(Nc3ccc(-c4ncc(C)n4C)cc3S(C)(=O)=O)cc(NC(=O)C3CC3)nc2[nH]1` [I-462, N-(7-((4-(1,5-dimethyl-1H-imidazol-2-yl)-2-(methylsulfonyl)phenyl)amino)-2-methyl-3H-imidazo[4,5-b]pyridin-5-yl)cyclopropanecarboxamide] gave a Kd of 0.1 to 0.5 nM. `Cc1csc(-c2ccc(Nc3cc(Nc4cnc(C)c(C)n4)nc4[nH]c(C(F)F)nc34)c(S(C)(=O)=O)c2)n1` [I-463, 2-(difluoromethyl)-N5-(5,6-dimethylpyrazin-2-yl)-N7-(2-(methylsulfonyl)-4-(4-methylthiazol-2-yl)phenyl)-3H-imidazo[4,5-b]pyridine-5,7-diamine] gave a Kd of 1 to 10 nM. `Cc1csc(-c2ccc(Nc3cc(Nc4cnc(C)c(C)n4)nc4[nH]c(C)nc34)c(S(C)(=O)=O)c2)n1` [I-464, N5-(5,6-dimethylpyrazin-2-yl)-2-methyl-N7-(2-(methylsulfonyl)-4-(4-methylthiazol-2-yl)phenyl)-3H-imidazo[4,5-b]pyridine-5,7-diamine] was tested, and the Kd was 0.5 to 1 nM. For `Cc1nc2c(Nc3ccc(-c4nc(C)c(C)s4)cc3S(C)(=O)=O)cc(Nc3cnc(C)c(C)n3)nc2[nH]1` [I-466, N5-(5,6-dimethylpyrazin-2-yl)-N7-(4-(4,5-dimethylthiazol-2-yl)-2-(methylsulfonyl)phenyl)-2-methyl-3H-imidazo[4,5-b]pyridine-5,7-diamine], the Kd was 0.5 to 1 nM. Work on `Cc1cc(Nc2cc(Nc3ccc(-c4nc(C)cs4)cc3S(C)(=O)=O)c3nc(C(F)F)[nH]c3n2)nc(C)n1` [I-467, 2-(difluoromethyl)-N5-(2,6-dimethylpyrimidin-4-yl)-N7-(2-(methylsulfonyl)-4-(4-methylthiazol-2-yl)phenyl)-3H-imidazo[4,5-b]pyridine-5,7-diamine] yielded a Kd of 0.1 to 0.5 nM. In the case of `Cc1cc(Nc2cc(Nc3ccc(-c4nc(C)cs4)cc3S(C)(=O)=O)c3nc(C)[nH]c3n2)nc(C)n1` [I-468, N5-(2,6-dimethylpyrimidin-4-yl)-2-methyl-N7-(2-(methylsulfonyl)-4-(4-methylthiazol-2-yl)phenyl)-3H-imidazo[4,5-b]pyridine-5,7-diamine], the Kd is reported as 0.1 to 0.5 nM. `Cc1cc(Nc2cc(Nc3ccc(-c4nc(C)c(C)s4)cc3S(C)(=O)=O)c3nc(C(F)F)[nH]c3n2)nc(C)n1` [I-469, 2-(difluoromethyl)-N5-(2,6-dimethylpyrimidin-4-yl)-N7-(4-(4,5-dimethylthiazol-2-yl)-2-(methylsulfonyl)phenyl)-3H-imidazo[4,5-b]pyridine-5,7-diamine] was tested, and the Kd was 0.5 to 1 nM. Compound `Cc1cc(Nc2cc(Nc3ccc(-c4nc(C)c(C)s4)cc3S(C)(=O)=O)c3nc(C)[nH]c3n2)nc(C)n1` [I-470, N5-(2,6-dimethylpyrimidin-4-yl)-N7-(4-(4,5-dimethylthiazol-2-yl)-2-(methylsulfonyl)phenyl)-2-methyl-3H-imidazo[4,5-b]pyridine-5,7-diamine] has a Kd of 0.1 to 0.5 nM. Compound `CC1(C)COC(c2ccc(Nc3cc(NC(=O)[C@H]4C[C@H]4F)nc4[nH]c(C(F)F)nc34)c(S(C)(=O)=O)c2)=N1` [I-471, (1R,2R)—N-(2-(difluoromethyl)-7-((4-(4,4-dimethyl-4,5-dihydrooxazol-2-yl)-2-(methylsulfonyl)phenyl)amino)-3H-imidazo[4,5-b]pyridin-5-yl)-2-fluorocyclopropane-1-carboxamide] has a Kd of 1 to 10 nM. `Cc1nc2c(Nc3ccc([C@@H]4CCCO4)cc3S(C)(=O)=O)cc(NC(=O)C3CC3)nc2[nH]1` [I-472, (S)—N-(2-methyl-7-((2-(methylsulfonyl)-4-(tetrahydrofuran-2-yl)phenyl)amino)-3H-imidazo[4,5-b]pyridin-5-yl)cyclopropanecarboxamide] gave a Kd of 0.1 to 0.5 nM. For `Cc1nc2c(Nc3ccc([C@H]4CCCO4)cc3S(C)(=O)=O)cc(NC(=O)C3CC3)nc2[nH]1` [I-473, (R)—N-(2-methyl-7-((2-(methylsulfonyl)-4-(tetrahydrofuran-2-yl)phenyl)amino)-3H-imidazo[4,5-b]pyridin-5-yl)cyclopropanecarboxamide], the Kd was < 0.1 nM. With `Cc1nc2c(Nc3ccc([C@H]4CCCCO4)cc3S(C)(=O)=O)cc(Nc3cnc(C)c(C)n3)nc2[nH]1` [I-474, (R)—N5-(5,6-dimethylpyrazin-2-yl)-2-methyl-N7-(2-(methylsulfonyl)-4-(tetrahydro-2H-pyran-2-yl)phenyl)-3H-imidazo[4,5-b]pyridine-5,7-diamine] the Kd was < 0.1 nM. In the case of `Cc1nc2c(Nc3ccc([C@@H]4CCCCO4)cc3S(C)(=O)=O)cc(Nc3cnc(C)c(C)n3)nc2[nH]1` [I-475, (S)—N5-(5,6-dimethylpyrazin-2-yl)-2-methyl-N7-(2-(methylsulfonyl)-4-(tetrahydro-2H-pyran-2-yl)phenyl)-3H-imidazo[4,5-b]pyridine-5,7-diamine], the Kd is reported as 0.1 to 0.5 nM. `Cc1csc(-c2ccc(Nc3cc(Nc4cc5n(n4)CCOC5)nc4[nH]c(C(F)F)nc34)c(S(C)(=O)=O)c2)n1` [I-476] showed a Kd of 0.1 to 0.5 nM. `Cc1csc(-c2ccc(Nc3cc(Nc4cc5n(n4)CCOC5)nc4[nH]c(C)nc34)c(S(C)(=O)=O)c2)n1` [I-477, N5-(6,7-dihydro-4H-pyrazolo[5,1-c][1,4]oxazin-2-yl)-2-methyl-N7-(2-(methylsulfonyl)-4-(4-methylthiazol-2-yl)phenyl)-3H-imidazo[4,5-b]pyridine-5,7-diamine] was tested, and the Kd was 0.1 to 0.5 nM. With `Cc1nc2c(Nc3ccc(-c4nn(C)cc4C)cc3S(C)(=O)=O)cc(NC(=O)[C@@H]3CC3(C)C)nc2[nH]1` [I-478, (R)—N-(7-((4-(1,4-dimethyl-1H-pyrazol-3-yl)-2-(methylsulfonyl)phenyl)amino)-2-methyl-3H-imidazo[4,5-b]pyridin-5-yl)-2,2-dimethylcyclopropane-1-carboxamide] the Kd was 1 to 10 nM. With `Cc1nc2c(Nc3ccc(-c4nn(C)cc4C)cc3S(C)(=O)=O)cc(NC(=O)[C@H]3CC3(C)C)nc2[nH]1` [I-479, (S)—N-(7-((4-(1,4-dimethyl-1H-pyrazol-3-yl)-2-(methylsulfonyl)phenyl)amino)-2-methyl-3H-imidazo[4,5-b]pyridin-5-yl)-2,2-dimethylcyclopropane-1-carboxamide] the Kd was 1 to 10 nM. In the case of `Cc1nc(-c2ccc(Nc3cc(Nc4cc5n(n4)CCOC5)nc4[nH]c(C(F)F)nc34)c(S(C)(=O)=O)c2)sc1C` [I-480, 2-(difluoromethyl)-N5-(6,7-dihydro-4H-pyrazolo[5,1-c][1,4]oxazin-2-yl)-N7-(4-(4,5-dimethylthiazol-2-yl)-2-(methylsulfonyl)phenyl)-3H-imidazo[4,5-b]pyridine-5,7-diamine], the Kd is reported as 0.1 to 0.5 nM. `Cc1nc(-c2ccc(Nc3cc(NC(=O)C4CC4)nc4[nH]c(C(F)F)nc34)c(S(C)(=O)=O)c2)c(C)s1` [I-481, N-(2-(difluoromethyl)-7-((4-(2,5-dimethylthiazol-4-yl)-2-(methylsulfonyl)phenyl)amino)-3H-imidazo[4,5-b]pyridin-5-yl)cyclopropanecarboxamide] showed a Kd of 0.1 to 0.5 nM. `CC1(C)CSC(c2ccc(Nc3cc(NC(=O)[C@H]4CC4(F)F)nc4[nH]c(C(F)F)nc34)c(S(C)(=O)=O)c2)=N1` [I-482, (R)—N-(2-(difluoromethyl)-7-((4-(4,4-dimethyl-4,5-dihydrothiazol-2-yl)-2-(methylsulfonyl)phenyl)amino)-3H-imidazo[4,5-b]pyridin-5-yl)-2,2-difluorocyclopropane-1-carboxamide] gave a Kd of 1 to 10 nM. With `CC1(C)CSC(c2ccc(Nc3cc(NC(=O)[C@@H]4CC4(F)F)nc4[nH]c(C(F)F)nc34)c(S(C)(=O)=O)c2)=N1` [I-483, (S)—N-(2-(difluoromethyl)-7-((4-(4,4-dimethyl-4,5-dihydrothiazol-2-yl)-2-(methylsulfonyl)phenyl)amino)-3H-imidazo[4,5-b]pyridin-5-yl)-2,2-difluorocyclopropane-1-carboxamide] the Kd was > 10 nM. Compound `Cc1nc2c(Nc3ccc(C4=NC(C)(C)CS4)cc3S(C)(=O)=O)cc(NC(=O)[C@H]3CC3(F)F)nc2[nH]1` [I-484, (R)—N-(7-((4-(4,4-dimethyl-4,5-dihydrothiazol-2-yl)-2-(methylsulfonyl)phenyl)amino)-2-methyl-3H-imidazo[4,5-b]pyridin-5-yl)-2,2-difluorocyclopropane-1-carboxamide] has a Kd of 1 to 10 nM. `Cc1nc2c(Nc3ccc(C4=NC(C)(C)CS4)cc3S(C)(=O)=O)cc(NC(=O)[C@@H]3CC3(F)F)nc2[nH]1` [I-485, (S)—N-(7-((4-(4,4-dimethyl-4,5-dihydrothiazol-2-yl)-2-(methylsulfonyl)phenyl)amino)-2-methyl-3H-imidazo[4,5-b]pyridin-5-yl)-2,2-difluorocyclopropane-1-carboxamide] was tested, and the Kd was > 10 nM.
